The experiment concerns RAW 264.7 cells. Briefly: Production of ROS in cells (DCF-DA, flow cytometry). The format is cell-based, murine. The note with it: RANKL 100 ng/mL; DCF-DA staining. As to the method: After RAW 264.7 cells were aliquoted at 5×10^4 cells/well into 6-well plates and stabilized for 24 hours, RAW 264.7 cells were induced into differentiation by RANKL (100 ng/mL), treated with FO at each concentration, cultured for 5 days, and then stained at 37° C. for 30 minutes by treatment with 10 μM DCF-DA, and then measured using flow cytometry.
It is known that oxidative stress in cells occurs during the differentiation of osteoclasts induced by RANKL. Therefore, the effects of FO on the production of ROS induced by RANKL was confirmed through DCF-DA staining.
(Flow cytometry measures light scatter and fluorescence of single cells or particles in a stream.)

Consider `CC(=O)N[C@@H](CS)C(=O)O` [NAC], for which the “ROS increased in the osteoclasts treated with RANKL” value is recorded as “also similarly observed”.
